Reference: article PMC6007898, “Methyl dihydrojasmonate and lilial are the constituents with an "off-label" insect repellence in perfumes” (PLoS ONE, 2018)

Molecular target: T1, CquiOR136/CquiOrco (Culex quinquefasciatus, UniProt A0A0A0QKD4)
T1 construct: odorant receptor co-expressed with its co-receptor Orco in Xenopus oocytes; with Odorant receptor coreceptor
T1 sequence (A0A0A0QKD4 1-436): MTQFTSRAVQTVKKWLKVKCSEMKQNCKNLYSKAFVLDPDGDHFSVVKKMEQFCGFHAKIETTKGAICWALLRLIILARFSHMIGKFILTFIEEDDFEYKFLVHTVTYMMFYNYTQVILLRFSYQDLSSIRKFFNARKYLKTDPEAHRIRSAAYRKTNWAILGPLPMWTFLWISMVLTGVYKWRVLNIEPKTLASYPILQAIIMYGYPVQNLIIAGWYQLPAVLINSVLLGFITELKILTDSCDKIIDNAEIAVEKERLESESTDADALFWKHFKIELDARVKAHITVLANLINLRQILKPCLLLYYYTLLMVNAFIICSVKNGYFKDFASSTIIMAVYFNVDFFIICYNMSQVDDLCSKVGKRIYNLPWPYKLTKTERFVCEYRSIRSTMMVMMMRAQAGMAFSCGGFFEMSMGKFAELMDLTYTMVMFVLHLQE
Assay: two-electrode voltage clamp, Xenopus oocytes
Assay type: cell-based
Conditions: holding potential -80 mV, CquiOrco co-expressed, agonist
Protocol: All compounds were tested at the same dose

SMILES: CCCCCC1C(=O)CCC1CC(=O)OC (mixture of isomers) [MDJ, methyl 2-(3-oxo-2-pentylcyclopentyl)acetate]
- current at 1 mM: The currents elicited by methyl dihydrojasmonate were significantly higher than those elicited by lilial

SMILES: CC(C=O)Cc1ccc(C(C)(C)C)cc1 (centres unmarked) [lilial]
- current at 1 mM: both compounds were somewhat strong repellents, they activated CquiOR136 differently
